Assay results from patent US20240408169A1 (priority 2023, published 2024).
pIC50: −log10 of the molar value. *1 amine or outer side, *2 acyl side, *3 side chain or, on linkers, in order; H or OH if unused. Where a SMILES comes first, the peptide text is derived from it. Bridges are numbered along the chain shown (N, C = ends). [ ]: non-standard residue; d: D form. The star is where a group is joined. X127 = CN([C@@H](Cc1cc(F)ccc1-c1cnn(S(=O)(=O)C2CC2)c1)C(=O)[*:2])[*:1]; X142 = CN([C@@H](Cc1cc(Cl)ccc1C1=CCN(S(C)(=O)=O)CC1)C(=O)[*:2])[*:1]; X134 = CN([C@@H](Cc1cc(Cl)ccc1-c1cnc2[nH]c(O)cc2c1)C(=O)[*:2])[*:1]; NMehhhLys(Me) = CN([C@@H](CCCCCCCN(C)[*:3])C(=O)[*:2])[*:1]; X117 = Cc1cc(-c2ccc(F)cc2C[C@@H](C(=O)[*:2])N(C)[*:1])cnn1; X194 = CN([C@@H](Cc1cc(Cl)ccc1-c1ccnnc1)C(=O)[*:2])[*:1]; X176 = CN([C@@H](Cc1cc(F)ccc1-c1cccnc1)C(=O)[*:2])[*:1]; X204 = CN([C@@H](Cc1cc(F)ccc1-c1ccnnc1)C(=O)[*:2])[*:1]; NMe(hhhLys) = CN([C@@H](CCCCCCCN[*:3])C(=O)[*:2])[*:1]; NMe3Pal(2-OMe,5-Cl) = CN[C@@H](Cc1cc(Cl)cnc1OC)C(=O)O; Oxane2carbonyl(2R-CF3) = O=C([C@@]1(C(F)(F)F)CCCCO1)*; cBuCO(3,3-F2-1-CF3) = O=C(C1(C(F)(F)F)CC(F)(F)C1)*; X25 = CCOc1ncc(Cl)cc1C[C@@H](C(=O)[*:2])N(C)[*:1]; Pro(trans-4-F) = O=C(O)[C@@H]1C[C@@H](F)CN1; Pivaloyl(3,3,3-F3) = CC(C)(C(=O)*)C(F)(F)F; Gly(cPr) = N[C@H](C(=O)O)C1CC1

How the values were obtained:
[1] = target: T1, CyclinE1/CDK2 (Homo sapiens, UniProt P24864); assay: Fluorescence Polarization (FP) competitive binding assay, Cyclin E1/Cdk2; conditions: 10 nM Cyclin E1/Cdk2, 2 nM FAM probe; average of 2-3 independent experiments; read-out: Cyclin E FP IC50;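 note: readings taken after two-hour equilibration at room temperature in HEPES buffer with NaCl, DTT, NP-40 and BSA, IC50 fitted from eight-concentration serial dilution series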
T1 construct: purchased Eurofins, discovery 14-475

[2] = target: T2, CyclinB1/CDK1 (Homo sapiens, UniProt P14635); assay: Fluorescence Polarization (FP) competitive binding assay, Cyclin B1/Cdk1; conditions: 10 nM Cyclin B1/Cdk1, 2 nM FAM probe; average of 2-3 independent experiments; read-out: Cyclin B FP IC50;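 note: fluorescence polarization read after equilibration at room temperature, with IC50 taken from serially diluted dose-response curves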
T2 construct: purchased Eurofins, discovery 14-450

[3] = test system: NCI-H1048 cells; assay: MTT proliferation assay, NCI-H1048; format: cell-based; conditions: 5 days compound exposure, 1:3 serial dilution starting at 10 μM;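 note: Dose-response in 96-well plates over 8 or 10 concentration points, with exposure spanning 3-4 cell doublings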
[4] = test system: OVCAR3 cells; assay: MTT proliferation assay, OVCAR3; format: cell-based; conditions: 5 days compound exposure, 1:3 serial dilution starting at 10 μM;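 note: compound given as an 8- or 10-point series, one day after plating, with exposure covering roughly 3-4 cell doublings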
[5] = target: T3, CyclinA2/CDK2 (Homo sapiens, UniProt P20248); assay: Fluorescence Polarization (FP) competitive binding assay, Cyclin A2/Cdk2; conditions: 8 nM Cyclin A2/Cdk2, 2 nM FAM probe; average of 2-3 independent experiments; read-out: Cyclin A FP IC50;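 note: plates equilibrated two hours at room temperature before polarization reading, IC50 fitted from eight-concentration compound titration curves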
T3 construct: purchased CRELUX Protein Services

Structure (SMILES)	pIC50 [1]	pIC50 [2]	GI50 [3] [nM]	GI50 [4] [nM]	pIC50 [5]
COc1ncc(Cl)cc1C[C@H]1C(=O)N(C)CCCCCCC[C@H](N(C)C(=O)[C@@H](NC(=O)[C@@H]2C[C@@H](F)CN2C(=O)C(C)(C)C(F)(F)F)C2CC2)C(=O)N[C@@H](CC(C)C)C(=O)N1C [Example 268] ({Pivaloyl(3,3,3-F3)}-[Pro(trans-4-F)][Gly(cPr)][NMehhhLys(Me)]L[NMe3Pal(2-OMe,5-Cl)]; lactam 3-C)	7.00	7.70	20	10	7.22
CCOc1ncc(Cl)cc1C[C@H]1C(=O)N(C)CCCCCCC[C@H](N(C)C(=O)[C@@H](NC(=O)[C@@H]2C[C@@H](F)CN2C(=O)C(C)(C)C(F)(F)F)C2CC2)C(=O)N[C@@H](CC(C)C)C(=O)N1C [Example 269] ({Pivaloyl(3,3,3-F3)}-[Pro(trans-4-F)][Gly(cPr)][NMehhhLys(Me)]L[X25]; lactam 3-C)	7.00	7.70	30	30	7.22
CC(C)C[C@@H]1NC(=O)[C@@H](N(C)C(=O)[C@@H](NC(=O)[C@@H]2C[C@@H](F)CN2C(=O)C2(C(F)(F)F)CC(F)(F)C2)C2CC2)CCCCCCCN(C)C(=O)[C@H](Cc2cc(F)ccc2-c2cccnc2)N(C)C1=O [Example 271] ({cBuCO(3,3-F2-1-CF3)}-[Pro(trans-4-F)][Gly(cPr)][NMehhhLys(Me)]L[X176]; lactam 3-C)	6.62	7.70	10	10	7.52
CC(C)C[C@@H]1NC(=O)[C@@H](N(C)C(=O)[C@@H](NC(=O)[C@@H]2C[C@@H](F)CN2C(=O)C2(C(F)(F)F)CC(F)(F)C2)C2CC2)CCCCCCCN(C)C(=O)[C@H](Cc2cc(Cl)ccc2-c2cnc3[nH]c(O)cc3c2)N(C)C1=O [Example 272] ({cBuCO(3,3-F2-1-CF3)}-[Pro(trans-4-F)][Gly(cPr)][NMehhhLys(Me)]L[X134]; lactam 3-C)	5.80	7.70	90	430	7.30
CC(C)C[C@@H]1NC(=O)[C@@H](N(C)C(=O)[C@@H](NC(=O)[C@@H]2C[C@@H](F)CN2C(=O)C2(C(F)(F)F)CC(F)(F)C2)C2CC2)CCC=CCCCNC(=O)[C@H](Cc2cc(Cl)ccc2-c2cnn(S(C)(=O)=O)c2)N(C)C1=O [Example 273, (2S,4R)—N—((S)-2-(((3S,6S,9S)-3-(5-chloro-2-(1-(methylsulfonyl)-1H-pyrazol-4-yl)benzyl)-6-isobutyl-4-methyl-2,5,8-trioxo-1,4,7-triazacyclohexadec-12-en-9-yl)(methyl)amino)-1-cyclopropyl-2-oxoethyl)-1-(3,3-difluoro-1-(trifluoromethyl)cyclobutane-1-carbonyl)-4-fluoropyrrolidine-2-carboxamide]	5.71	7.70	30	40	7.30
COc1ncc(Cl)cc1C[C@H]1C(=O)NCCCCCCC[C@H](N(C)C(=O)[C@@H](NC(=O)[C@@H]2C[C@@H](F)CN2C(=O)C2(C(F)(F)F)CC(F)(F)C2)C2CC2)C(=O)N[C@@H](CC(C)C)C(=O)N1C [Example 275] ({cBuCO(3,3-F2-1-CF3)}-[Pro(trans-4-F)][Gly(cPr)][NMe(hhhLys)]L[NMe3Pal(2-OMe,5-Cl)]; lactam 3-C)	6.64	7.70	10	10	7.30
CC(C)C[C@@H]1NC(=O)[C@@H](N(C)C(=O)[C@@H](NC(=O)[C@@H]2C[C@@H](F)CN2C(=O)C2(C(F)(F)F)CC(F)(F)C2)C2CC2)C/C=C\CCCCN(C)C(=O)[C@H](Cc2cc(F)ccc2-c2cnn(S(C)(=O)=O)c2)N(C)C1=O [Example 278]	6.55	7.70	10	10	7.15
CC(C)C[C@@H]1NC(=O)[C@@H](N(C)C(=O)[C@@H](NC(=O)[C@@H]2C[C@@H](F)CN2C(=O)C2(C(F)(F)F)CC(F)(F)C2)C2CC2)CCCCCCCN(C)C(=O)[C@H](Cc2cc(F)ccc2-c2ccnnc2)N(C)C1=O [Example 279] ({cBuCO(3,3-F2-1-CF3)}-[Pro(trans-4-F)][Gly(cPr)][NMehhhLys(Me)]L[X204]; lactam 3-C)	5.72	7.70	80	90	7.00
CC(C)C[C@@H]1NC(=O)[C@@H](N(C)C(=O)[C@@H](NC(=O)[C@@H]2C[C@@H](F)CN2C(=O)C2(C(F)(F)F)CC(F)(F)C2)C2CC2)CCCCCCCNC(=O)[C@H](Cc2cc(F)ccc2-c2cccnc2)N(C)C1=O [Example 280] ({cBuCO(3,3-F2-1-CF3)}-[Pro(trans-4-F)][Gly(cPr)][NMe(hhhLys)]L[X176]; lactam 3-C)	6.49	7.70	10	10	7.40
CC(C)C[C@@H]1NC(=O)[C@@H](N(C)C(=O)[C@@H](NC(=O)[C@@H]2C[C@@H](F)CN2C(=O)C2(C(F)(F)F)CC(F)(F)C2)C2CC2)CCCCCCCNC(=O)[C@H](Cc2cc(F)ccc2-c2cnn(S(=O)(=O)C3CC3)c2)N(C)C1=O [Example 281] ({cBuCO(3,3-F2-1-CF3)}-[Pro(trans-4-F)][Gly(cPr)][NMe(hhhLys)]L[X127]; lactam 3-C)	6.28	7.70	10	20	7.40
CC(C)C[C@@H]1NC(=O)[C@@H](N(C)C(=O)[C@@H](NC(=O)[C@@H]2C[C@@H](F)CN2C(=O)[C@@]2(C(F)(F)F)CCCCO2)C2CC2)CCCCCCCN(C)C(=O)[C@H](Cc2cc(F)ccc2-c2cnn(S(=O)(=O)C3CC3)c2)N(C)C1=O [Example 282] ({Oxane2carbonyl(2R-CF3)}-[Pro(trans-4-F)][Gly(cPr)][NMehhhLys(Me)]L[X127]; lactam 3-C)	7.00	7.70	10	10	7.52
CC(C)C[C@@H]1NC(=O)[C@@H](N(C)C(=O)[C@@H](NC(=O)[C@@H]2C[C@@H](F)CN2C(=O)C2(C(F)(F)F)CC(F)(F)C2)C2CC2)CCCCCCCNC(=O)[C@H](Cc2cc(Cl)ccc2C2=CCN(S(C)(=O)=O)CC2)N(C)C1=O [Example 284] ({cBuCO(3,3-F2-1-CF3)}-[Pro(trans-4-F)][Gly(cPr)][NMe(hhhLys)]L[X142]; lactam 3-C)	5.76	7.70	10	10	7.70
CC(C)C[C@@H]1NC(=O)[C@@H](N(C)C(=O)[C@@H](NC(=O)[C@@H]2C[C@@H](F)CN2C(=O)C2(C(F)(F)F)CC(F)(F)C2)C2CC2)CCCC=CCCNC(=O)[C@H](Cc2cc(Cl)ccc2-c2cnn(C)c2)N(C)C1=O [Example 285]	5.77	7.70	50	30	7.22
CC(C)C[C@@H]1NC(=O)[C@@H](N(C)C(=O)[C@@H](NC(=O)[C@@H]2C[C@@H](F)CN2C(=O)C2(C(F)(F)F)CC(F)(F)C2)C2CC2)CCCC=CCCNC(=O)[C@H](Cc2cc(Cl)ccc2-c2cnn(C3CC3)c2)N(C)C1=O [Example 287]	5.71	7.70	40	40	7.22
CC(C)C[C@@H]1NC(=O)[C@@H](N(C)C(=O)[C@@H](NC(=O)[C@@H]2C[C@@H](F)CN2C(=O)C2(C(F)(F)F)CC(F)(F)C2)C2CC2)CCCCCCCNC(=O)[C@H](Cc2cc(F)ccc2-c2ccnnc2)N(C)C1=O [Example 290] ({cBuCO(3,3-F2-1-CF3)}-[Pro(trans-4-F)][Gly(cPr)][NMe(hhhLys)]L[X204]; lactam 3-C)	5.75	7.70	80	150	6.92
CC(C)C[C@@H]1NC(=O)[C@@H](N(C)C(=O)[C@@H](NC(=O)[C@@H]2C[C@@H](F)CN2C(=O)C2(C(F)(F)F)CC(F)(F)C2)C2CC2)CCCCCCCNC(=O)[C@H](Cc2cc(Cl)ccc2-c2ccnnc2)N(C)C1=O [Example 291] ({cBuCO(3,3-F2-1-CF3)}-[Pro(trans-4-F)][Gly(cPr)][NMe(hhhLys)]L[X194]; lactam 3-C)	5.29	7.70	120	150	7.15
CC(C)C[C@@H]1NC(=O)[C@@H](N(C)C(=O)[C@@H](NC(=O)[C@@H]2C[C@@H](F)CN2C(=O)C2(C(F)(F)F)CC(F)(F)C2)C2CC2)CCCCCCCN(C)C(=O)[C@H](Cc2cc(Cl)ccc2-c2ccnnc2)N(C)C1=O [Example 292] ({cBuCO(3,3-F2-1-CF3)}-[Pro(trans-4-F)][Gly(cPr)][NMehhhLys(Me)]L[X194]; lactam 3-C)	5.54	7.70	70	110	7.22
Cc1cc(-c2ccc(F)cc2C[C@H]2C(=O)N(C)CCCCCCC[C@H](N(C)C(=O)[C@@H](NC(=O)[C@@H]3C[C@@H](F)CN3C(=O)C3(C(F)(F)F)CC(F)(F)C3)C3CC3)C(=O)N[C@@H](CC(C)C)C(=O)N2C)cnn1 [Example 293] ({cBuCO(3,3-F2-1-CF3)}-[Pro(trans-4-F)][Gly(cPr)][NMehhhLys(Me)]L[X117]; lactam 3-C)	5.70	7.70	50	90	7.00
Cc1cc(-c2ccc(F)cc2C[C@H]2C(=O)NCCCCCCC[C@H](N(C)C(=O)[C@@H](NC(=O)[C@@H]3C[C@@H](F)CN3C(=O)C3(C(F)(F)F)CC(F)(F)C3)C3CC3)C(=O)N[C@@H](CC(C)C)C(=O)N2C)cnn1 [Example 294] ({cBuCO(3,3-F2-1-CF3)}-[Pro(trans-4-F)][Gly(cPr)][NMe(hhhLys)]L[X117]; lactam 3-C)	5.84	7.70	80	130	7.10
